Measured values reported in article PMC3509171 (Nature chemical biology, 2012).
Residue numbers refer to the chain shown, from its start.

Assays:
hOGT (312-1031) [1] = target: T1, hOGT (312-1031) (Homo sapiens, UniProt O15294); experiment: surface plasmon resonance, […] equilibrium fit; type: binding
T1 sequence (O15294 322-1041): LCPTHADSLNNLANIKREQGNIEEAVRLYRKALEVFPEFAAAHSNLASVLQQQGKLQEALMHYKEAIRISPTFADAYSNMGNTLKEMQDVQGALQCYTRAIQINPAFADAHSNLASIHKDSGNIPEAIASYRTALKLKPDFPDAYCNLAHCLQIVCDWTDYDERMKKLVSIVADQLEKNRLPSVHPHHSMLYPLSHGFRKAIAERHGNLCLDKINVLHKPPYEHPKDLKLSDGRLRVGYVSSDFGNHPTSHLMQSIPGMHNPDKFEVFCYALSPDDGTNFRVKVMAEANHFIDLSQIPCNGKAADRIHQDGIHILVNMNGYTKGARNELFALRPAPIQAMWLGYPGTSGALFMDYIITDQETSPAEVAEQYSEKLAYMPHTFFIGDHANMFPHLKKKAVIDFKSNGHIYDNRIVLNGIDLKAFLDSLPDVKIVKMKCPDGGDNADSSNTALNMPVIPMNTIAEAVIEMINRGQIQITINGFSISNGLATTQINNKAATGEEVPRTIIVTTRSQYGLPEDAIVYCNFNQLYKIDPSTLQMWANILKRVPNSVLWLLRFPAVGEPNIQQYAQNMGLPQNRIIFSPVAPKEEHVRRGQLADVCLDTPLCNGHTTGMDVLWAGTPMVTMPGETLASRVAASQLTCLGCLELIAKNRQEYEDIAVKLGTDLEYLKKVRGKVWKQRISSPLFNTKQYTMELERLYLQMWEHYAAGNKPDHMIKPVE

hOGT (312-1031) [2] = target: T2, hOGT (312-1031) (Homo sapiens, UniProt O15294, K852M); experiment: surface plasmon resonance, […] equilibrium fit; type: binding
T2 sequence (O15294 322-1041 K852M): T1 sequence (O15294 322-1041) with K531M

hOGT (312-1031) [3] = target: T3, hOGT (312-1031) (Homo sapiens, UniProt O15294, H568F); experiment: surface plasmon resonance, […] equilibrium fit; type: binding
T3 sequence (O15294 322-1041 H568F): T1 sequence (O15294 322-1041) with H247F

hOGT (312-1031) [4] = target: T4, hOGT (312-1031) (Homo sapiens, UniProt O15294, D564N); experiment: surface plasmon resonance, […] equilibrium fit; type: binding
T4 sequence (O15294 322-1041 D564N): T1 sequence (O15294 322-1041) with D243N

hOGT (312-1031) [5] = target: T1, hOGT (312-1031); experiment: in vitro O-GlcNAc transfer inhibition; type: biochemical

Compound | Kd (hOGT (312-1031) [1]) [µM] | Kd (hOGT (312-1031) [2]) [µM] | Kd (hOGT (312-1031) [3]) [µM] | Kd (hOGT (312-1031) [4]) [µM] | IC50 (hOGT (312-1031) [5]) [µM]
O=C(N[C@H]1[C@@H](OP(=O)(O)OP(=O)(O)OC[C@H]2O[C@@H](n3ccc(=O)[nH]c3=O)[C@H](O)[C@@H]2O)O[C@H](CO)[C@@H](O)[C@@H]1O)C(F)(F)F [compound 2, UDP-GlcNAcF3] | 12.1 ± 0.1 | 29.3 ± 0.1 |  |  | 
O=c1ccn([C@@H]2O[C@H](COP(=O)(O)OP(=O)(O)O)[C@@H](O)[C@H]2O)c(=O)[nH]1 [UDP] |  |  | 0.7 ± 0.1 | 0.6 ± 0.03 | 
CC(=O)N[C@@H]1[C@@H](O)[C@H](O)[C@@H](CO)S[C@@H]1OP(=O)(O)OP(=O)(O)OC[C@H]1O[C@@H](n2ccc(=O)[nH]c2=O)[C@H](O)[C@@H]1O [compound 1, UDP-5S-GlcNAc] |  | 5.7 ± 0.1 |  |  | 
CC(=O)N[C@H]1[C@@H](OP(=O)(O)O[P@](O)(=S)OC[C@H]2O[C@@H](n3ccc(=O)[nH]c3=O)[C@H](O)[C@@H]2O)O[C@H](CO)[C@@H](O)[C@@H]1O [compound 4, RP-αS-UDP-GlcNAc] | 11.3 ± 0.1 | 2.8 ± 0.1 |  |  | 25
CC(=O)N[C@H]1[C@@H](OP(=O)(O)OP(=O)(O)OC[C@H]2O[C@@H](n3ccc(=O)[nH]c3=O)[C@H](O)[C@@H]2O)O[C@H](CO)[C@@H](O)[C@@H]1O [UDP-GlcNAc] | 16.1 ± 0.1 | 4.7 ± 0.1 | 42.3 ± 0.4 | 32.1 ± 0.3 | 
